Results on one compound are retold here after patent US10434174B2, “Combination therapies using platinum agents and agents that target tumor-associated stroma or tumor cells” (BIOMED VALLEY DISCOVERIES, INC., priority 2014, dated 2019).

Square brackets hold non-standard residues; d marks the D form. Peptide text beside a SMILES is read from it. * marks the point of attachment. Dolaproine = CO[C@@H]([C@@H]1CCCN1)[C@@H](C)C(=O)O; Dil = CC[C@H](C)[C@H](NC)[C@@H](CC(=O)O)OC; X1 = C[C@@H](N*)[C@@H](O)c1ccccc1; NMeV = CN[C@H](C(=O)O)C(C)C

The assay has as its system OVCAR3 ovarian cancer model. The experiment in a line: M825 and M825-MMAE in OVCAR3 ovarian cancer model. Format: in vivo, mouse. To be noted: 0.2 mg/kg, equivalent to maximum MMAE in the 10 mg/kg ADC group. The procedure: Treatment initiated when tumor volume reached approximately 120 mm^3. M825 was given i.v. at 10 mg/kg and M825-MMAE was given i.v. at 1, 3, or 10 mg/kg, 2 times per week for 3.5 weeks. […] The 10 mg/kg ADC group was redosed on Day 56, 2 times per week.

In the case of `CC[C@H](C)[C@@H]([C@@H](CC(=O)N1CCC[C@H]1[C@H](OC)[C@@H](C)C(=O)N[C@H](C)[C@@H](O)c1ccccc1)OC)N(C)C(=O)[C@@H](NC(=O)[C@@H](NC)C(C)C)C(C)C` [MMAE] (H-[NMeV]V[Dil][Dolaproine]-X1), the tumor growth result is “No effect”.
